Measured values reported in patent publication US20250154141A1 (University of Florida Research Foundation, Incorporated, priority 2021, published 2025).
Read-outs that look alike come from different tables or passages of the source.

Experiments:
Format in all cases: cell-based
MOLT-4 = experiment: Cell viability assay (MTS) in MOLT-4 cells
Experimental: (§1) Acute lymphoblastic leukemia cells (MOLT-4 and RS4; 11) were incubated with increasing concentrations of Bcl-xL degraders for 48 h. Cell viability was measured by tetrazolium-based MTS assay.

RS4; 11 = experiment: Cell viability assay (MTS) in RS4; 11 cells; parameters: Anti-Cancer Activity IC50 (48 hr) RS4; 11: scale not given here
Experimental: as §1

human platelets = experiment: Platelet toxicity assay (MTS viability); conditions: for IC50: 48 h, human platelets; for Platelets/MOLT-4 IC50 Fold change / PLT/MOLT-4 IC50 Fold Change: ratio of platelet IC50 to MOLT-4 IC50
Experimental: Platelet-rich plasma (PRP) was purchased from Life South Community Blood Centers (Gainesville, FL, USA). PRP was transferred into a 50 mL tube containing 5 mL of the acid citrate buffer (Cat. No. sc-214744, Santa Cruz Biotechnology). To prevent clotting, prostaglandin E1 (PGE1, Cat. No. sc-201223A, Santa Cruz Biotechnology, Dallas, TX, USA) and apyrase (Cat. No. A6237, Sigma-Aldrich, St. Louis, MO, USA) were added to final concentrations of […] and 0.2 U/mL, respectively. After gently mixing the solution, platelets were pelleted by centrifugation at 1200 g for 10 min without break. Pelleted platelets were gently washed without disturbing platelets using 2 mL of HEPES Tyrode's buffer (Cat. No. PY-921WB, Boston BioProducts, Ashland, MA, USA) containing […] PGE1 and 0.2 U/mL apyrase. After washing, pellets were gently suspended in 10 mL of HEPES Tyrode's buffer containing […] PGE1 and 0.2 U/mL apyrase. Then, the platelet number was counted using a HEMAVET 950FS hematology analyzer (Drew Scientific, Inc., Oxford, CT, USA). For viability assays, the platelet number was adjusted to 2×10^8/mL in HEPES Tyrode's buffer containing […] PGE1 and 0.2 U/mL apyrase. Each treatment was given in 2 mL of the platelet suspension in 15 mL polypropylene tubes. The tubes were placed on a rotating platform at room temperature, and the viability of platelets was measured after 48 h treatment by using the MTS reagent (Cat. No. G1111, Promega, Madison, WI, USA). The data were analyzed by the GraphPad Prism 7 software for the calculation of IC50 values.

[1] = Homo sapiens, MOLT-4, Table 2, 48 hr, MTS, read-out: Anti-Cancer Activity IC50 (48 hr) MOLT-4
[2] = Homo sapiens, MOLT-4, Table 5, 48 h, read-out: MOLT-4 48 h IC50
[3] = Homo sapiens, RS4-11, Table 5, 48 h, read-out: RS4 48 h IC50
[4] = Homo sapiens, Platelet, Table 5, read-out: Platelets 48 h IC50
[5] = Homo sapiens, MOLT-4, Table 3, 48 h, mean of two independent experiments in triplicates, read-out: MOLT-4 48 h IC50
[6] = Homo sapiens, Platelet, Table 3, mean of two independent experiments in triplicates, read-out: Platelets 48 h IC50
[7] = Homo sapiens, MOLT-4, Table 4, 48 h, read-out: MOLT-4 48 h IC50
[8] = Homo sapiens, RS4-11, Table 4, 48 h, read-out: RS4 48 h IC50
[9] = Homo sapiens, Platelet, Table 4, read-out: Platelets 48 h IC50
[10] = Homo sapiens, RS4-11, Table 2, 48 hr, MTS, read-out: Anti-Cancer Activity IC50 (48 hr) RS4, 11
[11] = Homo sapiens, Platelet, Table 6, 4 th time, read-out: Platelets 4 th time 48 h IC50

| SMILES | IC50 (MOLT-4; [1]) [nM] | IC50 (RS4; 11; [3]) [nM] | IC50 (MOLT-4; [5]) [nM] | IC50 (MOLT-4; [7]) [nM] | IC50 (RS4; 11; [8]) [nM] | IC50 (RS4; 11; [10]) [nM] | IC50 (human platelets; [4]) [nM] | IC50 (human platelets; [6]) [nM] | Platelets/MOLT-4 IC50 Fold change (human platelets; Table 3) | PLT/MOLT-4 IC50 Fold Change (human platelets; Table 4) | IC50 (human platelets; [9]) [nM] | also measured |
| --- | --- | --- | --- | --- | --- | --- | --- | --- | --- | --- | --- | --- |
| Cc1ncsc1-c1ccc([C@H](C)NC(=O)[C@@H]2C[C@@H](O)CN2C(=O)[C@@H](NC(=O)CCCCCCC(=O)N2CCN(CC3(C)CCC(c4ccc(Cl)cc4)=C(CN4CCN(c5ccc(C(=O)NS(=O)(=O)c6ccc(N[C@H](CCN7CCC7)CSc7ccccc7)c([N+](=O)[O-])c6)cc5)CC4)C3)CC2)C(C)(C)C)cc1 (stereo partly drawn) [Compound 37, (2S,4R)-1-((2S)-2-(8-(4-((6-((4-(4-(((4-(((R)-4-(azetidin-1-yl)-1-(phenylthio)butan-2-yl)amino)-3-nitrophenyl)sulfonyl)carbamoyl)phenyl)piperazin-1-yl)methyl)-4′-chloro-4-methyl-2,3,4,5-tetrahydro-[1,1′-biphenyl]-4-yl)methyl)piperazin-1-yl)-8-oxooctanamido)-3,3-dimethylbutanoyl)-4-hydroxy-N—((S)-1-(4-(4-methylthiazol-5-yl)phenyl)ethyl)pyrrolidine-2-carboxamide] | < 20 | 7 | – | – | – | – | 4620 | – | – | – | – | IC50 (MOLT-4; [2]): 20 nM; Anti-Cancer Activity IC50 (48 hr) RS4; 11 (RS4; 11; Table 2, 48 hr, MTS): + + |
| Cc1ncsc1-c1ccc([C@H](C)NC(=O)[C@@H]2C[C@@H](O)CN2C(=O)[C@@H](NC(=O)CCCCCC(=O)N2CCN(CC[C@H](CSc3ccccc3)Nc3ccc(S(=O)(=O)NC(=O)c4ccc(N5CCN(CC6=C(c7ccc(Cl)cc7)CCC(C)(C)C6)CC5)cc4)cc3S(=O)(=O)C(F)(F)F)CC2)C(C)(C)C)cc1 [DT2216, reference compound] | – | – | – | – | – | – | – | – | – | >150 | – | IC50 (MOLT-4; Table 4, 48 h, read-out: MOLT-4 48 h IC50): 50 to 80 nM; IC50 (RS4; 11; Table 4, 48 h, read-out: RS4 48 h IC50): 180 to 230 nM; IC50 (human platelets; Table 4, read-out: Platelets 48 h IC50): > 10000 nM |
| Cc1ncsc1-c1ccc([C@H](C)NC(=O)[C@@H]2C[C@@H](O)CN2C(=O)[C@@H](NC(=O)CCCCCCC(=O)N2CCN(CC3(C)CCC(c4ccc(Cl)cc4)=C(CN4CCN(c5ccc(C(=O)NS(=O)(=O)c6ccc(N[C@H](CCN7CCOCC7)CSc7ccccc7)c(S(=O)(=O)C(F)(F)F)c6)cc5)CC4)C3)CC2)C(C)(C)C)cc1 (stereo partly shown) [PP18319C8] | – | – | – | 17.4 | 18.7 | – | – | – | – | 94 | 1640 | – |
| Cc1ncsc1-c1ccc([C@H](C)NC(=O)[C@@H]2C[C@@H](O)CN2C(=O)[C@@H](NC(=O)CCCCCCC(=O)N2CCN(CC3(C)CCC(c4ccc(Cl)cc4)=C(CN4CCN(c5ccc(C(=O)NS(=O)(=O)c6ccc(N[C@H](CCN7C[C@@H]8C[C@H]7CO8)CSc7ccccc7)c(S(=O)(=O)C(F)(F)F)c6)cc5)CC4)C3)CC2)C(C)(C)C)cc1 (stereo partly shown) [compound 64] | < 20 | – | – | – | – | < 20 | – | – | – | – | – | IC50 (MOLT-4; Homo sapiens, MOLT-4, Table 6, 48 h, read-out: MOLT-4 48 h IC50): 2.9 nM; IC50 (RS4; 11; Homo sapiens, RS4-11, Table 6, 48 h, read-out: RS4 48 h IC50): 4.7 nM; IC50 (human platelets; [11]): 884 nM |
| Cc1ncsc1-c1ccc([C@H](C)NC(=O)[C@@H]2C[C@@H](O)CN2C(=O)[C@@H](NC(=O)CCCCCCC(=O)N2CCN(C[C@]3(C)CCC(c4ccc(Cl)cc4)=C(CN4CCN(c5ccc(C(=O)NS(=O)(=O)c6ccc(N[C@H](CCN7CCOCC7)CSc7ccccc7)c(S(=O)(=O)C(F)(F)F)c6)cc5)CC4)C3)CC2)C(C)(C)C)cc1 [PZ753B, reference compound] | – | – | – | 6.9 | 5.8 | – | – | – | – | 152 | 1050 | – |

More lines, main results first:

| IC50 (MOLT-4; [1]) [nM] | IC50 (RS4; 11; [3]) [nM] | IC50 (MOLT-4; [5]) [nM] | IC50 (MOLT-4; [7]) [nM] | IC50 (RS4; 11; [8]) [nM] | IC50 (RS4; 11; [10]) [nM] | SMILES | IC50 (human platelets; [4]) [nM] | IC50 (human platelets; [6]) [nM] | Platelets/MOLT-4 IC50 Fold change (human platelets; Table 3) | PLT/MOLT-4 IC50 Fold Change (human platelets; Table 4) | IC50 (human platelets; [9]) [nM] | also measured |
| --- | --- | --- | --- | --- | --- | --- | --- | --- | --- | --- | --- | --- |
| < 20 | – | 17.6 | – | – | – | Cc1ncsc1-c1ccc([C@H](C)NC(=O)[C@@H]2C[C@@H](O)CN2C(=O)[C@@H](NC(=O)CCCCCCC(=O)N2CCN(CC3(C)CCC(c4ccc(Cl)cc4)=C(CN4CCN(c5ccc(C(=O)NS(=O)(=O)c6ccc(N[C@H](CCN7CCCC7)CSc7ccccc7)c([N+](=O)[O-])c6)cc5)CC4)C3)CC2)C(C)(C)C)cc1 (stereo partly drawn) [Compound 38, (2S,4R)-1-((2S)-2-(8-(4-((4′-chloro-4-methyl-6-((4-(4-(((3-nitro-4-(((R)-1-(phenylthio)-4-(pyrrolidin-1-yl)butan-2-yl)amino)phenyl)sulfonyl)carbamoyl)phenyl)piperazin-1-yl)methyl)-2,3,4,5-tetrahydro-[1,1′-biphenyl]-4-yl)methyl)piperazin-1-yl)-8-oxooctanamido)-3,3-dimethylbutanoyl)-4-hydroxy-N—((S)-1-(4-(4-methylthiazol-5-yl)phenyl)ethyl)pyrrolidine-2-carboxamide] | – | 3000 | 170 | – | – | Anti-Cancer Activity IC50 (48 hr) RS4; 11 (RS4; 11; Table 2, 48 hr, MTS): + ++ |
| < 20 | – | – | 9.6 | 44.9 | 20 to 100 | Cc1ncsc1-c1ccc([C@H](C)NC(=O)[C@@H]2C[C@@H](O)CN2C(=O)[C@@H](NC(=O)CCCCCNC(=O)c2ccc(N3CCN(CC4(C)CCC(c5ccc(Cl)cc5)=C(CN5CCN(c6ccc(C(=O)NS(=O)(=O)c7ccc(N[C@H](CCN8CCOCC8)CSc8ccccc8)c(S(=O)(=O)C(F)(F)F)c7)cc6)CC5)C4)CC3)nc2)C(C)(C)C)cc1 (stereo partly shown) [Compound 3] | – | – | – | 510 | 4900 | – |
| < 20 | 3.7 | – | – | – | < 20 | Cc1ncsc1-c1ccc([C@H](C)NC(=O)[C@@H]2C[C@@H](O)CN2C(=O)[C@@H](NC(=O)CCCCC(=O)N2CCC(C3CCN(CC4(C)CCC(c5ccc(Cl)cc5)=C(CN5CCN(c6ccc(C(=O)NS(=O)(=O)c7ccc(N[C@H](CCN8C[C@H]9C[C@@H]8CO9)CSc8ccccc8)c(S(=O)(=O)C(F)(F)F)c7)cc6)CC5)C4)CC3)CC2)C(C)(C)C)cc1 (stereo partly shown) [Compound 69] | 157 | – | – | – | – | IC50 (MOLT-4; [2]): 1.9 nM |
| < 20 | 8.4 | 14.3 | – | – | < 20 | Cc1ncsc1-c1ccc([C@H](C)NC(=O)[C@@H]2C[C@@H](O)CN2C(=O)[C@@H](NC(=O)CCCCCCC(=O)N2CCN(CC3(C)CCC(c4ccc(Cl)cc4)=C(CN4CCN(c5ccc(C(=O)NS(=O)(=O)c6ccc(N[C@H](CCN7CCCCC7)CSc7ccccc7)c([N+](=O)[O-])c6)cc5)CC4)C3)CC2)C(C)(C)C)cc1 (stereo partly drawn) [Compound 39, (2S,4R)-1-((2S)-2-(8-(4-((4′-chloro-4-methyl-6-((4-(4-(((3-nitro-4-(((R)-1-(phenylthio)-4-(piperidin-1-yl)butan-2-yl)amino)phenyl)sulfonyl)carbamoyl)phenyl)piperazin-1-yl)methyl)-2,3,4,5-tetrahydro-[1,1′-biphenyl]-4-yl)methyl)piperazin-1-yl)-8-oxooctanamido)-3,3-dimethylbutanoyl)-4-hydroxy-N—((S)-1-(4-(4-methylthiazol-5-yl)phenyl)ethyl)pyrrolidine-2-carboxamide] | 4570 | 4570 | 319 | – | – | – |
| – | – | 220 | – | 38 | – | CC1(C)CCC(c2ccc(Cl)cc2)=C(CN2CCN(c3ccc(C(=O)NS(=O)(=O)c4ccc(N[C@H](CCN5CCOCC5)CSc5ccccc5)c(S(=O)(=O)C(F)(F)F)c4)cc3)CC2)C1 [ABT-263, navitoclax, reference compound] | – | 312 | 1.4 | – | 260 | IC50 (human platelets; [11]): 223 nM; Platelets/MOLT-4 IC50 Fold change (human platelets; Table 6): 1 |
